Experiments:
[1] = tested on: Salmonella enterica subsp. enterica ser. Typhimurium ATCC 14028; format: cell-based; details: Example 2; 2×T, 1×NaCl back-extraction medium
Protocol: A universal schematic for MIL-based cell extraction is depicted in FIG. 7B. A 1 mL volume of diluted cell suspension was added to a flat-bottomed 4-mL screw cap glass vial. Fifteen microliters of either the Ni(II) or Dy(III) MIL was added and dispersed into microdroplets by vortex agitation for 30 s. The aqueous phase was decanted following dispersive extraction, and the MIL was subjected to a brief wash step using 1 mL of nuclease-free water (Integrated DNA Technologies, Coralville, IA, USA) to ensure adequate removal of loosely or incidentally bound cells. After washing, release of viable cells from the MIL extraction phase was carried out using a “back-extraction” step accomplished through addition of 1 mL of an ionically-rich nutritive medium comprised of 20 g L^−1 tryptone and 10 g L^−1 NaCl, followed by a 120 s vortex step. After back-extraction, aliquots of the cell-enriched back-extraction medium were enumerated using the track dilution method using 100×100 mm square, gridded TSA, BSA, CA or VRBGA plates.
Following back-extraction, aliquots of the cell-enriched back-extraction medium were serially diluted in 0.1% peptone water and a 10 μL aliquot of each dilution was applied to a separate lane on square plates containing an appropriate agar medium. The plates were then tilted at an approximately 80° angle for 15 min to allow the droplets to travel toward the opposite end of the plate. The plates were incubated for 24 h at 37° C. (TSA, VRBGA), for 48 h at 37° C. (BSA) or for 24 h at 37° C. (CA). Colonies were counted and colony forming units (CFU) were determined. The enrichment factor (EF) for MIL-based extraction was calculated using Equation 1, where CMIL represents the concentration of bacteria in suspension following extraction using the MIL and CS is the initial concentration of bacteria in the sample.
Because culture-based methods depend on sample preparation steps that preserve bacterial viability, potential deleterious cytotoxic effects imparted by MIL extractants must be considered. To begin our further study of MIL-bacterial interactions, we selected S. typhimurium ATCC 14028 as a model gram-negative pathogen and the Ni(II) MIL as extractant.

Density of MIL = format: physicochemical
[2] = tested on: S. typhimurium ATCC 14028; assay: Exposure of cells and plating on non-selective (TSA) and selective (BSA) agar (viability, injury, toxicity); format: cell-based, Salmonella enterica
Protocol: To examine whether exposure time to the Ni(II) MIL affected cell viability, MIL-based whole-cell extraction was performed using the Ni(II) MIL, and cell-enriched back-extraction media were enumerated at 0, 5, 10 and 15 min on both TSA and BSA. To evaluate toxicity of the [EMIM^+][SCN^−] IL, one milliliter of diluted S. typhimurium ATCC 14028 cell suspension was added to a 4-mL screw cap glass vial. A 5% (vol/vol) or 50% (vol/vol) aqueous solution of 1-ethyl-3-methylimidazolium thiocyanate (“[EMIM^+][SCN^−]”) (IoLiTec, Tuscaloosa, AL, USA) was added and mixed by vortexing for 30 s. Aliquots were enumerated at 0, 5, 10 and 15 min using TSA and BSA.
One milliliter of diluted S. typhimurium ATCC 14028 cell suspension was added to a 4-mL screw cap glass vial. Fifteen microliters of either the Dy(III) MIL or 2-10 μL of 100 mM DyCh solution or 10 mg of the ammonium tetra(hexafluoroaceto)dysprosium salt (15) ([NH4^+][Dy(hfacac)4^−]) (“Dy(III) ammonium salt”) was added and dispersed by vortex agitation for 30 s. Aliquots of the Dy(III) MIL- or Dy(III) ammonium salt-exposed cell suspension were enumerated using square TSA or BSA plates (BD).
Because culture-based methods depend on sample preparation steps that preserve bacterial viability, potential deleterious cytotoxic effects imparted by MIL extractants must be considered. To begin our further study of MIL-bacterial interactions, we selected S. typhimurium ATCC 14028 as a model gram-negative pathogen and the Ni(II) MIL as extractant. Briefly, a 1 mL aliquot of TSB was inoculated with 1×10^5 CFU mL^−1 of bacteria and spiked with 15 μL of the Ni(II) MIL, and the general schematic for MIL-based extraction and recovery followed as shown in FIG. 7B. After extraction, 10 μL aliquots of the back-extraction solution were enumerated at 0, 5, 10 and 15 min using TSA and BSA. Average CFU counts were compared to a standard that was not exposed to the Ni(II) MIL. […] To better understand the data in FIG. 8, statistical analyses of Ni(II) MIL capture precision and CFU count variation as a function of MIL exposure time were performed. Variation in MIL capture may stem from inherent randomness of MIL dispersion and coalescence behaviors.
The effects of 5% or 50% (vol/vol) aqueous solutions of the [EMIM^+][SCN^−] IL on the viability of the cells were also evaluated. Average CFU counts were compared to a standard not exposed to [EMIM^+][SCN^−]. In our hands, when S. typhimurium was exposed to 50% (vol/vol) solutions of [EMIM^+][SCN^−], no recovery was observed on either TSA or BSA after 5 min of exposure.
To gain further insight into this phenomenon, the effect of free elemental dysprosium was evaluated by subjecting the cells to 0.1 mM and 1.0 mM solutions of DyCl3. The cells were exposed to the metal salt solutions for 30 s and subsequently plated on selective and non-selective media.
While the metal did show cytotoxicity, it cannot be completely responsible for the Dy(III) MIL's effect on the cells, as no flocculation was seen and growth was still observed. Since both the Ni(II) and the Dy(III) MILs contain identical cations ([P6,6,6,14^+]), the role of the anion structure was evaluated. The anion of the Dy(III) MIL contains one additional hexafluoroacetylacetonate ligand than the Ni(II) MIL (FIG. 7), making the coordination geometry of the two complexes different. To test the effects of the anion structure, cells were subjected to 10 mg of the Dy(III) ammonium salt. After a 30 second vortex, similar flocculation was observed as when the cells were exposed to the native Dy(III) MIL.

Salmonella typhimurium [3] = details: plated to a selective agar; cited from earlier work
Salmonella typhimurium [4] = details: thermal (120° C.-150° C.) disintegration; cited from earlier work
E. coli = details: thermal (120° C.-150° C.) disintegration; cited from earlier work

## CCCCCCCCCCCCCC[P+](CCCCCC)(CCCCCC)CCCCCC.O=C([CH-]C(=O)C(F)(F)F)C(F)(F)F.O=C([CH-]C(=O)C(F)(F)F)C(F)(F)F.O=C([CH-]C(=O)C(F)(F)F)C(F)(F)F.[Co+2] [Co(II) MIL]
[1]
  enrichment factors: approximately 12
Density of MIL
  density: ~1.3 g/mL

## [Cl][Dy]([Cl])[Cl] [DyCl3, reference compound]
[2]; 0.1 mM and 1.0 mM solutions, 30 s exposure
  viable counts on TSA and BSA: substantially lower counts were observed on BSA than TSA

## O=C([CH-]C(=O)C(F)(F)F)C(F)(F)F.O=C([CH-]C(=O)C(F)(F)F)C(F)(F)F.O=C([CH-]C(=O)C(F)(F)F)C(F)(F)F.O=C([CH-]C(=O)C(F)(F)F)C(F)(F)F.[Dy+3].[NH4+] [Dy(III) ammonium salt, ammonium tetra(hexafluoroaceto)dysprosium salt, reference compound]
[2]; 10 mg, 30 second vortex, 24 h incubation
  growth on TSA or BSA: no growth was seen on either TSA or BSA

## CCCCCCCCCCCCCC[P+](CCCCCC)(CCCCCC)CCCCCC.O=C([CH-]C(=O)C(F)(F)F)C(F)(F)F.O=C([CH-]C(=O)C(F)(F)F)C(F)(F)F.O=C([CH-]C(=O)C(F)(F)F)C(F)(F)F.O=C([CH-]C(=O)C(F)(F)F)C(F)(F)F.[Dy+3] [Dy(III) MIL, [P6,6,6,14^+][Dy(III) (hfacac)4^−]]
[2]; 15 μL added to cell suspension, 30 s vortex
  flocculation and growth after plating: extensive flocculation and no growth after plating

## CCn1cc[n+](C)c1.N#C[S-] [[EMIM^+][SCN^−], 1-ethyl-3-methylimidazolium thiocyanate, reference compound]
[2]; 50% (vol/vol) solution, after 5 min of exposure
  recovery on TSA or BSA: no recovery
[2]; exposed as originally described for IL-based extraction from foods (Mester et al., 2010)
  recovery on TSA or BSA: no recovery
Salmonella typhimurium [3]
  inoculated S. typhimurium recovered after IL-mediated matrix lysis: 34-45%

## 1-butyl-1-methylpyrrolidinium bis(trifluoromethylsulfonyl)imide [[BMPyr^+][Ntf2^−]]
Salmonella typhimurium [4]
  cell disruption: completely disrupted
E. coli
  cell disruption: completely disrupted

— patent US12416052B2, “Capturing, concentrating, and detecting microbes in a sample using magnetic ionic liquids and recombinase polymerase amplification” (priority 2019, dated 2025)
